# Reference: PubChem BioAssay (NCI)
#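 How tested: cells in 96-well plates exposed to compound for 48 hours at five concentrations. TGI denotes the concentration required for complete inhibition of growth.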
# System: MDA-MB-435
# Test: DTP human tumour cell line panel, 48 h
row,Structure (SMILES),TGI [µM]
1,O=C1CC(=O)NC(=NN2C(=O)/C(=C/c3ccc(Cl)c(Cl)c3)N=C2c2ccccc2)N1,> 100
2,CC1=NC(C)(COC(=O)C2(C)NC(C)(CO)CO2)COC1=O (stereo not given),> 100
3,CC(=O)NC1C(Sc2ncn(C3OC(CO)C(O)C(O)C3NC(C)=O)n2)OC(CO)C(O)C1O (stereo not given),> 100

# System: CAKI-1 renal
# Test: DTP human tumour cell line panel, 48 h
row,Structure (SMILES),TGI [µM]
1,Cc1ccc(C(=O)NCc2ccccc2)cc1N=NN(C)C,> 100
2,c1ccc2c3[nH]c(c2c1)=Nc1ccc(cc1)-c1nc2ccc(cc2o1)N=c1[nH]c(c2ccccc12)=Nc1ccc2nc(oc2c1)-c1ccc(cc1)N=3,> 100
3,COc1cccc(CC(=O)N2CCN(CCCc3ccccc3)CC2)c1,> 100
4,Cn1c(=S)c2[nH]c(SCCCc3ccccc3)nc2n(C)c1=O,> 100
5,O=C1CC(=O)NC(=NN2C(=O)/C(=C/c3ccc(Cl)c(Cl)c3)N=C2c2ccccc2)N1,> 100
6,CC1=NC(C)(COC(=O)C2(C)NC(C)(CO)CO2)COC1=O (stereo not given),> 100
7,CC(=O)NC1C(Sc2ncn(C3OC(CO)C(O)C(O)C3NC(C)=O)n2)OC(CO)C(O)C1O (stereo not given),> 100

# System: OVCAR-8 ovarian
# Test: DTP human tumour cell line panel, 48 h
row,Structure (SMILES),TGI [µM]
1,Cc1ccc(C(=O)NCc2ccccc2)cc1N=NN(C)C,> 100
2,c1ccc2c3[nH]c(c2c1)=Nc1ccc(cc1)-c1nc2ccc(cc2o1)N=c1[nH]c(c2ccccc12)=Nc1ccc2nc(oc2c1)-c1ccc(cc1)N=3,> 100
3,COc1cccc(CC(=O)N2CCN(CCCc3ccccc3)CC2)c1,> 100
4,Cn1c(=S)c2[nH]c(SCCCc3ccccc3)nc2n(C)c1=O,> 100
5,O=C1CC(=O)NC(=NN2C(=O)/C(=C/c3ccc(Cl)c(Cl)c3)N=C2c2ccccc2)N1,94.9
6,CC1=NC(C)(COC(=O)C2(C)NC(C)(CO)CO2)COC1=O (stereo not given),> 100
7,CC(=O)NC1C(Sc2ncn(C3OC(CO)C(O)C(O)C3NC(C)=O)n2)OC(CO)C(O)C1O (stereo not given),> 100

# System: CCRF-CEM leukemia
# Test: DTP human tumour cell line panel, 48 h
row,Structure (SMILES),TGI [µM]
1,Cc1ccc(C(=O)NCc2ccccc2)cc1N=NN(C)C,> 100
2,c1ccc2c3[nH]c(c2c1)=Nc1ccc(cc1)-c1nc2ccc(cc2o1)N=c1[nH]c(c2ccccc12)=Nc1ccc2nc(oc2c1)-c1ccc(cc1)N=3,26.7
3,COc1cccc(CC(=O)N2CCN(CCCc3ccccc3)CC2)c1,> 100
4,Cn1c(=S)c2[nH]c(SCCCc3ccccc3)nc2n(C)c1=O,49.8
5,O=C1CC(=O)NC(=NN2C(=O)/C(=C/c3ccc(Cl)c(Cl)c3)N=C2c2ccccc2)N1,45.3
6,CC1=NC(C)(COC(=O)C2(C)NC(C)(CO)CO2)COC1=O (stereo not given),> 100
7,CC(=O)NC1C(Sc2ncn(C3OC(CO)C(O)C(O)C3NC(C)=O)n2)OC(CO)C(O)C1O (stereo not given),> 100

# System: M14 melanoma
# Test: DTP human tumour cell line panel, 48 h
row,Structure (SMILES),TGI [µM]
1,Cc1ccc(C(=O)NCc2ccccc2)cc1N=NN(C)C,> 100
2,c1ccc2c3[nH]c(c2c1)=Nc1ccc(cc1)-c1nc2ccc(cc2o1)N=c1[nH]c(c2ccccc12)=Nc1ccc2nc(oc2c1)-c1ccc(cc1)N=3,> 100
3,COc1cccc(CC(=O)N2CCN(CCCc3ccccc3)CC2)c1,> 100
4,Cn1c(=S)c2[nH]c(SCCCc3ccccc3)nc2n(C)c1=O,> 100
5,O=C1CC(=O)NC(=NN2C(=O)/C(=C/c3ccc(Cl)c(Cl)c3)N=C2c2ccccc2)N1,83.5
6,CC1=NC(C)(COC(=O)C2(C)NC(C)(CO)CO2)COC1=O (stereo not given),> 100
7,CC(=O)NC1C(Sc2ncn(C3OC(CO)C(O)C(O)C3NC(C)=O)n2)OC(CO)C(O)C1O (stereo not given),> 100

# System: UACC-257 melanoma
# Test: DTP human tumour cell line panel, 48 h
row,Structure (SMILES),TGI [µM]
1,Cc1ccc(C(=O)NCc2ccccc2)cc1N=NN(C)C,88.2
2,c1ccc2c3[nH]c(c2c1)=Nc1ccc(cc1)-c1nc2ccc(cc2o1)N=c1[nH]c(c2ccccc12)=Nc1ccc2nc(oc2c1)-c1ccc(cc1)N=3,> 100
3,COc1cccc(CC(=O)N2CCN(CCCc3ccccc3)CC2)c1,> 100
4,Cn1c(=S)c2[nH]c(SCCCc3ccccc3)nc2n(C)c1=O,44.8
5,O=C1CC(=O)NC(=NN2C(=O)/C(=C/c3ccc(Cl)c(Cl)c3)N=C2c2ccccc2)N1,> 100
6,CC1=NC(C)(COC(=O)C2(C)NC(C)(CO)CO2)COC1=O (stereo not given),> 100
7,CC(=O)NC1C(Sc2ncn(C3OC(CO)C(O)C(O)C3NC(C)=O)n2)OC(CO)C(O)C1O (stereo not given),> 100

# System: OVCAR-4 ovarian
# Test: DTP human tumour cell line panel, 48 h
row,Structure (SMILES),TGI [µM]
1,Cc1ccc(C(=O)NCc2ccccc2)cc1N=NN(C)C,> 100
2,COc1cccc(CC(=O)N2CCN(CCCc3ccccc3)CC2)c1,> 100
3,Cn1c(=S)c2[nH]c(SCCCc3ccccc3)nc2n(C)c1=O,> 100
4,O=C1CC(=O)NC(=NN2C(=O)/C(=C/c3ccc(Cl)c(Cl)c3)N=C2c2ccccc2)N1,> 100
5,CC1=NC(C)(COC(=O)C2(C)NC(C)(CO)CO2)COC1=O (stereo not given),> 100
6,CC(=O)NC1C(Sc2ncn(C3OC(CO)C(O)C(O)C3NC(C)=O)n2)OC(CO)C(O)C1O (stereo not given),> 100

# System: T-47D breast
# Test: DTP human tumour cell line panel, 48 h
row,Structure (SMILES),TGI [µM]
1,Cc1ccc(C(=O)NCc2ccccc2)cc1N=NN(C)C,> 100
2,c1ccc2c3[nH]c(c2c1)=Nc1ccc(cc1)-c1nc2ccc(cc2o1)N=c1[nH]c(c2ccccc12)=Nc1ccc2nc(oc2c1)-c1ccc(cc1)N=3,> 100
3,COc1cccc(CC(=O)N2CCN(CCCc3ccccc3)CC2)c1,89.9
4,Cn1c(=S)c2[nH]c(SCCCc3ccccc3)nc2n(C)c1=O,> 100
5,O=C1CC(=O)NC(=NN2C(=O)/C(=C/c3ccc(Cl)c(Cl)c3)N=C2c2ccccc2)N1,> 100
6,CC1=NC(C)(COC(=O)C2(C)NC(C)(CO)CO2)COC1=O (stereo not given),> 100
